{"source": "paper PMC10179460", "about": "“Computational and Enzymatic Studies of Sartans in SARS-CoV-2 Spike RBD-ACE2 Binding: The Role of Tetrazole and Perspectives as Antihypertensive and COVID-19 Therapeutics” (International Journal of Molecular Sciences, 2023)", "biological_target": "T1, ACE2 (angiotensin-converting enzyme 2) (Homo sapiens, UniProt Q9BYF1)", "T1 construct": "recombinant human ACE2, His-tag and Strep-tag, from Sf9 insect cells", "T1 sequence (Q9BYF1 18-805)": "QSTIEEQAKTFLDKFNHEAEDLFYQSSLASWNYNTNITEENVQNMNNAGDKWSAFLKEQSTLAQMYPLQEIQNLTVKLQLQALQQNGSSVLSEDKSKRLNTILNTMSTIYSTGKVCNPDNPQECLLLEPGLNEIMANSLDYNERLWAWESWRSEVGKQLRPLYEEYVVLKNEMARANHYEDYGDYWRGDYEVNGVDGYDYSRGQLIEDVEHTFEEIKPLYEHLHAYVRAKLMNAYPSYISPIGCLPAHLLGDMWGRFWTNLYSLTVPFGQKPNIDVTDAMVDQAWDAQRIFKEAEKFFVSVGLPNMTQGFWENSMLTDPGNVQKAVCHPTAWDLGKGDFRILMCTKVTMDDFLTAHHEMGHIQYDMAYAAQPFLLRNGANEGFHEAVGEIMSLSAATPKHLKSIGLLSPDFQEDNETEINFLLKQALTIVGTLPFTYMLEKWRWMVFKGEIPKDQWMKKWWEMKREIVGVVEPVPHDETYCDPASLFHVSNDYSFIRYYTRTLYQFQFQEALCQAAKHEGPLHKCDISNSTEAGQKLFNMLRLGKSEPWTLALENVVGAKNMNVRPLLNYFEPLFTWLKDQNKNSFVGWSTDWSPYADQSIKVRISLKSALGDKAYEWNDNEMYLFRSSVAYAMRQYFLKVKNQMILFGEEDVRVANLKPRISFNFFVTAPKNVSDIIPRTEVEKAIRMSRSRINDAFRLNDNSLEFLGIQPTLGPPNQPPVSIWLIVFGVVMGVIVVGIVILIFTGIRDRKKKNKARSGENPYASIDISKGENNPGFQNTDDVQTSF", "assay": "SPR (Biacore T200, immobilized ACE2, […] kinetic model)", "format": "binding", "data": [{"compound": "CCCCc1nc(Cl)c(CO)n1Cc1ccc(-c2ccccc2-c2nn[nH]n2)cc1", "note": "[losartan]", "values": [{"measurement": "Kd", "result": 13.7, "unit": "nM"}]}]}
